# Source: PubChem BioAssay AID1996
# Conditions: buffer; pH 7.4; 200.0 µM
row,solubility kinetic [µg/mL],Structure (SMILES)
1,38.1,Cc1ccccc1OC(C)C(=O)NCc1cccnc1 (stereo not given)
2,> 40.6,Cc1ccccc1NC(=O)CN1CCOCC1.Cl
3,5.4,Cc1sc2ncnc(SCC(=O)Nc3ccc(S(=O)(=O)N4CCOCC4)cc3)c2c1C
4,> 36.6,O=C(O)Cn1cnc2c(oc3ccccc32)c1=O
5,> 40.4,CN(C)/C=C/C(=O)c1cccc(Oc2ncccn2)c1
6,> 43.1,Cc1ccc(C)c(NC(=O)C2C3C=CC(O3)C2C(=O)O)c1 (stereo not given)
7,45.6,CCOC(=O)Cc1csc(NC(=O)c2ccc(C)cc2)n1
8,25.5,CC(=O)c1c(C)[n+]([O-])c2ccc3c(non3O)c12
9,30.1,Cc1cc(C(=O)N2CC(C)CC(C)C2)c(C)o1 (stereo not given)
10,3.1,CCOC(=O)c1c(C=O)c2ccccc2n1CC
11,47.3,O=C(NCc1ccco1)/C(=C\c1ccco1)NC(=O)c1ccco1
12,32.9,Cc1oc(C(N)=O)cc1COc1ccc(C(N)=O)cc1
13,> 40.5,C#Cc1cccc(NC(=O)C2CCN(C(C)=O)CC2)c1
14,4,Cc1c(Cl)cccc1NC(=O)Cn1c(-c2ccc(F)cc2)noc1=O
15,> 49.6,CCN(CC(=O)NCc1ccc(F)cc1)C(=O)/C=C/c1ccco1
16,13,Cc1csc(NC(=O)CN2C(=O)c3ccccc3C2=O)c1C(N)=O
17,29.7,COCC(C)NC(=O)c1cc2cc(OC)ccc2[nH]1 (stereo not given)
18,11.8,O=C(Nc1ccc(Cl)cc1)C(Cl)C(=O)c1ccccc1 (stereo not given)
19,32,CCN(c1ccccc1)S(=O)(=O)c1ccc(C(=O)NCc2ccco2)cc1
20,> 46.7,CCOP(=O)(OCC)/C(C#N)=C(\O)c1ccc(OC)cc1
21,> 40.3,COc1ccc(C(=O)CNC2=NCCC2)cc1.Cl
22,33.2,CC(C)c1ccc(OCc2ccc(C(=O)N(C)C)o2)cc1
23,> 41.4,COc1ccc(-n2ccc(=O)c(C(=O)O)n2)c(OC)c1
24,> 42.5,C/C(O)=C(\C#N)P(=O)(c1ccccc1)c1ccccc1
25,10.7,COC(=O)c1ccc(C(=O)N(Cc2ccccc2)c2ccccc2)cc1
26,> 46.1,CC(=O)c1ccc(NC(=S)N2CCN(CCO)CC2)cc1
27,> 44.8,Cc1ccc2c(c1)c1c3n2CCN(CCC(=O)O)C3CCC1 (stereo not given)

row,solubility kinetic [µg/mL],Structure (SMILES)
1,39,COc1ccc(C(O)Cn2cc([N+](=O)[O-])nc2C)cc1 (stereo not given)
2,6.9,Cc1ccc(NC(=O)COC(=O)CCc2ccccc2)c(Cl)c1
3,1.6,Cc1ccc(NC(=O)c2cc(=O)[nH]c3ccccc23)cc1
4,> 52.1,Cc1cccc(Oc2ccc(NC(=O)c3ccccc3C(=O)O)cc2)c1
5,> 40.4,CNC(=O)Nc1ccccc1C(=O)Nc1ccccc1
6,41.5,COc1ccccc1CC(=O)NC(=O)c1ccccc1O
7,3.2,Cc1ccc(C(=O)NC2CCCCCCC2)c(Cl)c1
8,> 44.3,Cc1c(NC(=O)C(C)C)cccc1-c1nc2ncccc2o1
9,> 50.5,Cc1cc(NC(=O)CN(C)CC(=O)Nc2ccc(Cl)cc2)no1
10,2.4,CN(C)/C=C1/OC(=O)C(C#N)=C1c1ccc(Cl)cc1
11,53.6,CC(C)Cc1csc(NC(=O)c2ccc(Br)cc2)c1C(=O)O
12,> 32.7,COc1ccc(NC(=O)c2ccco2)cn1
13,> 51.4,COc1cccc(CNC(=O)CCNC(=O)c2ccccc2OC)c1
14,> 56.8,N#Cc1ccsc1NC(=O)COC(=O)CCS(=O)(=O)c1ccccc1
15,7.7,COc1ccc(NC(=S)NC(=O)C2CCC2)cc1
16,> 49.8,CN(C(=O)c1ccc(Br)cc1)C1CCS(=O)(=O)C1 (stereo not given)
17,< 0.4,CCN(CC)CC(=O)Nc1scc2c1c(=O)oc1ccccc12
18,1.8,COc1ccc2oc(C(=O)NCCC(C)C)c(C)c2c1
19,> 32.4,C=CCNC(=O)/C(C#N)=C/c1ccc(C)o1
20,9.2,Cc1ccc(C(=O)NCC(=O)OCc2c(F)cccc2Cl)s1
21,< 0.4,O=C(/C=C/c1ccco1)Nc1nc(-c2ccc(F)c(F)c2)cs1
22,< 0.9,CCOC(=O)c1c(C)oc2c1c(C=NC1CCS(=O)(=O)C1)c(O)c1ccccc12 (stereo not given)
23,9.5,CCc1noc(C)c1C(=O)OCC(=O)Nc1ccc2c(c1)OCO2
24,< 0.3,CCOC(=O)c1sc(Nc2ccc(F)cc2)nc1C
25,> 45.7,C=CCNC(=O)c1ccc(NC(=O)C2=CSCCO2)cc1
26,> 48.5,COC(=O)c1ccc(NC(=S)N2CCN(CCO)CC2)cc1

# Second part, the molecule before the results:
row,Structure (SMILES),solubility kinetic [µg/mL]
1,O=C(c1noc2c1CCCC2)N1CCc2ccccc2C1,40.8
2,O=C(O)c1c(NC(=O)N2CCCC2)sc2c1CCCC2,> 44.2
3,O=C(Nc1cccc(S(=O)(=O)N2CCCCC2)c1)c1cncc(Br)c1,31.6
4,O=C(COC(=O)c1ccco1)Nc1cccc(S(=O)(=O)N2CCCCC2)c1,54.5
5,NC(=O)CCN1CCC(c2nc3ccccc3s2)CC1,35.3
6,Cc1cccc(-n2c(-c3ccc(Br)o3)n[nH]c2=S)c1,> 50.4
7,Cc1ccc(C)c(NC(=S)Nc2cccnc2)c1,> 38.6
8,CC(SC1=NCCN1S(C)(=O)=O)c1ccccc1 (stereo not given),42.5
9,COc1ccc(Cn2c(=O)cc(N)n(-c3ccccc3C)c2=O)cc1,> 50.6
10,CS(=O)(=O)N1CCc2cc(C(=O)Nc3cccc([N+](=O)[O-])c3)ccc21,< 0.3
11,O=S(=O)(Nc1nccs1)c1ccc(NS(=O)(=O)c2c(F)cc(F)c(Cl)c2F)cc1,> 72.6
12,O=C(Oc1ccc(F)cc1)c1cccnc1,26.7
13,O=C(Nc1nc2cc3c(cc2s1)OCCO3)c1ccco1,4.8
14,CCC1C(=O)NCCN1Cc1nc(-c2ccc(C)s2)oc1C (stereo not given),39.3
15,O=C(Cc1cccc2ccccc12)Nc1c(F)cccc1F,1.2
16,O=C(COc1ccc(S(=O)(=O)N2CCOCC2)cc1)NC1CC1,> 51.1
17,CC(NC(=O)C1CC1)C(c1cccs1)N1CCOCC1 (stereo not given),> 44.2
18,CCn1cnc2cc(NCc3ccc(Cl)cc3)ccc21,34
19,COc1ccc(NS(=O)(=O)c2cc(NC(=O)c3cc(F)c(F)cc3Cl)ccc2N2CCOCC2)cc1,3.7
20,COc1ccc(NC(=S)NC(=O)c2ccccc2)cn1,35.8
21,CCCCc1ccc(NC(=S)N2CCN(C)CC2)cc1,> 43.7
22,COc1ccc(N2CC(C(=O)N3CCOCC3)CC2=O)cc1 (stereo not given),> 45.7
23,COc1cccc(CNC(=O)Cc2ccc(-c3ccccc3)cc2)c1,5.1

row,Structure (SMILES),solubility kinetic [µg/mL]
1,CC1CCN(S(=O)(=O)c2cnc[nH]2)CC1,> 34.4
2,Cc1nc2ccc(NS(=O)(=O)c3ccc(F)c(C)c3)cc2[nH]1,> 47.9
3,CC(C)(C)c1ccccc1NC(=S)NC1CCCC1,30.9
4,O=C(Nc1ccc(F)cc1F)Nc1sccc1-c1nc2ccccc2s1,0.3
5,CC(=O)c1ccccc1NS(=O)(=O)c1cccc2nonc12,0.9
6,COc1cccc(Oc2ncnc(N)c2[N+](=O)[O-])c1,31
7,CC12CCC(C1)C(C)(C)C2NS(=O)(=O)c1ccc(F)cc1 (stereo not given),6.9
8,OCCCc1nc2ccccc2n1CCCCOc1ccccc1,44.6
9,OC1NC(=S)N(c2ccccc2)C1O (stereo not given),> 31.5
10,CC(C(=O)OCC(=O)NC1CCCCC1)N1C(=O)c2ccccc2C1=O (stereo not given),> 53.8
11,O=C(Nc1cccc(O)c1)C1CC(c2ccc(Cl)cc2)=NO1 (stereo not given),2.3
12,NS(=O)(=O)c1cccc(NC(=O)c2cccc(N3C(=O)c4ccccc4C3=O)c2)c1,12.2
13,Cc1c2n(c3ccccc13)CCC2=O,14.1
14,O=C(CCc1ccncc1)N1CCCC(Nc2ccc(F)c(F)c2)C1 (stereo not given),43.9
15,COc1ccc(Cn2c(=O)oc3ccccc32)cc1F,1.1
16,CNC(=S)N(Cc1ccccc1)Cc1cccnc1,39
17,O=C1c2ccccc2NC(c2ccccc2)N1CCCN1CCOCC1 (stereo not given),> 52.7
18,O=C(O)c1cccnc1SCc1ccccc1Cl,> 42
19,C#CC1CCCCC1NC(=O)Nc1cnccc1C(F)(F)F (stereo not given),43.2
20,N/C(=N\OCC(=O)Nc1ccc(F)c(Cl)c1)c1ccccc1,> 48.3
21,CCOc1ccc(C2=CSC3=NCCN23)cc1[N+](=O)[O-],36.2
22,O=C(Nc1cccc(NC(=O)c2ccccc2F)c1)c1ccccc1,0.9
23,COc1ccc(S(=O)(=O)NCCc2ccccc2)c2cccnc12,> 51.4

row,Structure (SMILES),solubility kinetic [µg/mL]
1,Cc1nc(-c2ccccn2)nc(SCC(=O)c2ccc(F)cc2)c1Cl,2.4
2,Cc1ncc(/C=C2\C(=O)Nc3ccccc32)[nH]1,12.1
3,O=C(NC1CCCC1)c1cc(-c2ccc(Cl)cc2Cl)on1,1
4,CSCC[C@H](NC(=O)c1ccc(OCC2CCCO2)cc1)c1nc2ccccc2[nH]1 (stereo not given in full),56.9
5,COc1cc(NS(=O)(=O)c2cn(C)cn2)cc(OC)c1,8.9
6,O=C(CCN1C(=O)C2C3C=CC(C3)C2C1=O)NC1CCCCC1 (stereo not given),> 47.5
7,O=C1CN(C(=O)/C=C/c2ccc(Cl)cc2Cl)CCN1,44.2
8,O=C1/C(=C\c2ccco2)SC(=S)N1C1CCS(=O)(=O)C1 (stereo not given),6.6
9,Cn1cnnc1SCC(=O)Nc1ncc([N+](=O)[O-])s1,> 45
10,Fc1cc(F)c(NC(=S)N2CCOCC2)c(F)c1,> 41.4
11,COc1ccc(NC(=O)CCOc2cc(C)ccc2C)cc1S(=O)(=O)N1CCCCC1,7.9
12,Cc1cc(C)c(N2C(=O)CCCC2=O)c(Cl)c1,> 37.8
13,Cc1ccc(C)c(N(CC(=O)N2CCc3ccccc3C2)S(C)(=O)=O)c1,52.8
14,COc1cccc(CSc2nc3ccncc3[nH]2)c1,> 40.7
15,Cc1cc(Oc2ccc(N)cn2)cc(C)c1Cl,27.6
16,CC(NC(=O)c1cccc(S(=O)(=O)N(C)c2ccccc2)c1)c1cccnc1 (stereo not given),> 59.3
17,CCN(Cc1ccccc1)C(=O)Cc1c[nH]c2ccccc12,33.9
18,COc1ccccc1C(C[N+](=O)[O-])c1c[nH]c2ccccc12 (stereo not given),9
19,Cl.O=C(Nc1ccccc1)N1CCNCC1,30.6
20,CC(=O)Nc1nc2c(s1)C(=O)NCC(C)(C)C2,> 38
21,COc1cccc(NC(=O)c2ccc3nc(C)sc3c2)c1,38.7
